Some test systems named below: BT-549 breast; K-562 leukemia; MALME-3M melanoma; MCF7 breast; NCI-H23 lung; NCI-H460 lung; SF-295 CNS; SK-MEL-5 melanoma; SNB-75 CNS; T-47D breast.
Common to all, as to test: DTP human tumour cell line panel, 48 h

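In this assay, cells in 96-well plates receive the compound at five concentrations for 48 hours. Endpoints are linearly interpolated between the surrounding concentrations. The concentration for full growth arrest is given as TGI.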 Some results are limits rather than exact numbers.

With `FC(F)(F)c1ccc2nc(Sc3ccc4ccccc4c3)cnc2c1`, the TGI in the assay with BT-549 breast is more than 100 µM; in the assay with K-562 leukemia, more than 100 µM; with MALME-3M melanoma, more than 100 µM; with MCF7 breast, 95 µM; in the assay on NCI-H23 lung, more than 100 µM; in the assay on NCI-H460 lung, more than 100 µM. Moreover, the TGI in the assay on SF-295 CNS, in the assay on SK-MEL-5 melanoma, in the assay with SNB-75 CNS and in the assay with T-47D breast was more than 100 µM throughout.
As for `C=CC[C@H](N=C(SC)SC)C(=O)N1C(=O)N(C)[C@@H](C)[C@H]1c1ccccc1`, the TGI in the assay on BT-549 breast, with K-562 leukemia, with MALME-3M melanoma, in the assay on MCF7 breast, in the assay on NCI-H23 lung and with NCI-H460 lung was more than 100 µM each time. The TGI in the assay on SF-295 CNS, in the assay with SK-MEL-5 melanoma, in the assay with SNB-75 CNS and in the assay with T-47D breast was more than 100 µM each time.
Regarding `NS(=O)(=O)c1ccc(N=Nc2ccc(O)c(C(=O)O)c2)cc1`, the TGI in the assay on BT-549 breast, in the assay on K-562 leukemia, in the assay on MALME-3M melanoma, in the assay with MCF7 breast, in the assay on NCI-H23 lung and with NCI-H460 lung was more than 100 µM each time. Further, the TGI with SF-295 CNS, in the assay with SK-MEL-5 melanoma, with SNB-75 CNS and with T-47D breast was more than 100 µM each time.
Take `Cc1ccc(/C=C2/N=C(N/N=C\c3ccccc3)NC2=O)cc1`: the TGI in the assay on BT-549 breast, in the assay with K-562 leukemia, in the assay with MALME-3M melanoma, in the assay on MCF7 breast, in the assay with NCI-H23 lung and with NCI-H460 lung was more than 100 µM throughout. Further, the TGI in the assay with SF-295 CNS, in the assay on SK-MEL-5 melanoma, with SNB-75 CNS and in the assay on T-47D breast was more than 100 µM throughout.
With `CCOC(=O)c1cc(Br)c(-c2cc(C)co2)[nH]1`, the TGI in the assay on BT-549 breast, in the assay on K-562 leukemia, in the assay with MALME-3M melanoma, in the assay on MCF7 breast, in the assay with NCI-H23 lung and in the assay with NCI-H460 lung was more than 100 µM throughout. The TGI with SF-295 CNS, in the assay on SK-MEL-5 melanoma, in the assay with SNB-75 CNS and in the assay on T-47D breast was more than 100 µM each time.
Regarding `Clc1cc2nnn(C3CCCO3)c2cc1Cl` (stereo not given), the TGI with BT-549 breast, with K-562 leukemia, with MALME-3M melanoma, in the assay with MCF7 breast, in the assay on NCI-H23 lung and in the assay on NCI-H460 lung was more than 100 µM in each case. For the same molecule, the TGI in the assay with SF-295 CNS, in the assay on SK-MEL-5 melanoma, in the assay on SNB-75 CNS and in the assay with T-47D breast was more than 100 µM each time.
On to `CC[C@@]1(O)C(=O)OCc2c1cc1n(c2=O)Cc2c-1nc1ccccc1c2/C=N\NC(=O)C(N)Cc1c[nH]c2ccccc12` (stereo not given in full), for which the TGI was more than 100 µM with BT-549 breast; more than 100 µM with K-562 leukemia; more than 48.9 µM in the assay on MALME-3M melanoma; more than 55.7 µM with MCF7 breast; 5.42 µM in the assay on NCI-H23 lung; 6.42 µM in the assay with NCI-H460 lung. Besides, the TGI in the assay on SF-295 CNS was 4.76 µM; with SK-MEL-5 melanoma, 2.49 µM; in the assay on SNB-75 CNS it was 1.83 µM; with T-47D breast it was more than 100 µM.
Take `CC(C)NC(=O)OCc1c(COC(=O)NC(C)C)c(-c2cc[n+](COC(=O)C3CCCCC3)cc2)n2c1CCC2`: the concentration for total growth inhibition (TGI) with BT-549 breast, in the assay with K-562 leukemia, with MALME-3M melanoma, in the assay on MCF7 breast, with NCI-H23 lung and in the assay on NCI-H460 lung was more than 100 µM each time. The TGI with SF-295 CNS, with SK-MEL-5 melanoma, in the assay on SNB-75 CNS and in the assay on T-47D breast was more than 100 µM in each case.
Turning to `O=c1[nH]nc(-c2ccccc2)n1-n1cnnc1`, the TGI in the assay with BT-549 breast, in the assay on K-562 leukemia, in the assay on MALME-3M melanoma, in the assay on MCF7 breast, in the assay on NCI-H23 lung and in the assay on NCI-H460 lung was more than 100 µM in each case. Besides, the TGI in the assay on SF-295 CNS, in the assay on SK-MEL-5 melanoma, in the assay on SNB-75 CNS and with T-47D breast was more than 100 µM throughout.
Turning to `CCCCCCCCCCCCO[P+](=O)OCCCCCCCCCCCC`, the TGI in the assay on BT-549 breast, in the assay on K-562 leukemia, in the assay with MALME-3M melanoma, in the assay on MCF7 breast, with NCI-H23 lung and in the assay on NCI-H460 lung was more than 100 µM each time. For the same molecule, the TGI in the assay on SF-295 CNS, in the assay on SK-MEL-5 melanoma, with SNB-75 CNS and with T-47D breast was more than 100 µM throughout.
Regarding `CCOC(=O)C1=C(C)N(Cc2ccccc2)C2(O)C=CC(=O)C3=C(O)c4ccccc4C(=O)C312` (stereo not given), the TGI with BT-549 breast stood at 20.2 µM; in the assay on K-562 leukemia, 61 µM; in the assay with MALME-3M melanoma, 8.35 µM; in the assay with MCF7 breast, 3.44 µM; in the assay on NCI-H23 lung, 26.7 µM; with NCI-H460 lung it was 24.4 µM. Moreover, the TGI in the assay with SF-295 CNS came out at 31.4 µM; in the assay on SK-MEL-5 melanoma, 22 µM; in the assay on SNB-75 CNS it was 55.4 µM; in the assay on T-47D breast it was 45 µM.
Take `C[C@H](CCC(=O)NCC(=O)O)[C@H]1CC[C@H]2[C@@H]3[C@H](O)C[C@@H]4C[C@H](O)CC[C@]4(C)[C@H]3CC[C@]12C`: the TGI with BT-549 breast, with K-562 leukemia, in the assay on MALME-3M melanoma, in the assay with MCF7 breast, in the assay on NCI-H23 lung and with NCI-H460 lung was more than 100 µM in each case. In addition, the TGI in the assay on SF-295 CNS, with SK-MEL-5 melanoma, with SNB-75 CNS and in the assay with T-47D breast was more than 100 µM throughout.
In the case of `C=C1CC2[C@H](C)C(=O)CCC2(C)C2=C1C1CCC(C(C)CCC(=C)C(C)C(=O)O)C1(C)CC2=O` (stereo not given in full), the TGI is more than 100 µM in the assay with BT-549 breast; 28.7 µM in the assay with K-562 leukemia; more than 100 µM with MALME-3M melanoma; more than 100 µM in the assay with MCF7 breast; more than 100 µM in the assay on NCI-H23 lung; more than 100 µM with NCI-H460 lung. Moreover, the TGI in the assay with SF-295 CNS, with SK-MEL-5 melanoma, in the assay with SNB-75 CNS and with T-47D breast was more than 100 µM each time.

As a reminder, the TGI is the concentration at which net growth stops.

Values taken from PubChem BioAssay (NCI).
